This assay addresses T1, HIV protease (Human immunodeficiency virus type 1 group M subtype B, UniProt P04585).
T1 construct: A third viral enzyme known as protease then cleaves the polyproteins
As to the kind of experiment: Enzymatic Assay for Determining the Inhibition Constant (Ki) of Synthetic Compounds Targeting the HIV Protease (fluorometric FRET assay). It counts as biochemical. A digest of the protocol: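 Fluorometric FRET assay following protease cleavage of an EDANS/DABCYL-labelled substrate. Initial velocities without (Vo) and with inhibitor (Vi) measured; Ki derived from the Henderson equation using inhibitor and substrate concentrations and Km.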

Setting [1] is: Table 1, compounds of formula I, read-out: Ki (anti-protease activity).

One may read the Ki as a dissociation constant, usually derived from enzyme kinetics or from competition with a known ligand.

Like-named read-outs stand apart in the source and are kept apart here.

For the compound `Cc1ccc(S(=O)(=O)N[C@@H](Cc2c[nH]c3ccccc23)C(=O)NCCCC[C@@H](C=O)N(CC(C)C)S(=O)(=O)c2ccc(C)cc2)cc1` [Example 116, (2S,2′S) 2-N-Isobutyl-2-N-(4-methylbenzenesulfonyl)-6-N-[N′α-(4-methylbenzenesulfonyl)-S-tryptophanyl]-2,6-diaminohexanal], under setting [1], the Ki was above 300 nM.
Take `Cc1ccc(S(=O)(=O)N(CC(C)C)[C@H](CO)CCCCNC(=O)[C@H](Cc2c[nH]c3ccccc23)NC(=O)C(C)(C)C)cc1` [Example 117, (2S,2′S) 2-N-Isobutyl-2-N-(4-methylbenzenesulfonyl)-6-N-(N′α-pivaloyl-S-tryptophanyl)-2,6-diaminohexanol]: the affinity corresponds to a Ki of 0.428 nM.
`CC(=O)N[C@@H](Cc1ccccc1)C(=O)NCCCC[C@@H](CO)N(CC(C)C)S(=O)(=O)c1ccc(C)cc1` [Example 118, (2S,2′S) 2-N-Isobutyl-2-N-(4-methylbenzenesulfonyl)-6-N-(N′α-acetyl-S-phenylalanyl)-2,6-diaminohexanol] returned a Ki of 13 nM.
`Cc1ccc(S(=O)(=O)N(CC(C)C)[C@H](CO)CCCCNC(=O)[C@H](Cc2ccccc2)NC(=O)C(C)(C)C)cc1` [Example 119, (2S,2′S) 2-N-Isobutyl-2-N-(4-methylbenzenesulfonyl)-6-N-(N′α-pivaloyl-S-phenylalanyl)-2,6-diaminohexanol] returned a Ki of 3.9 nM.
Same read-out and setting: the result for `Cc1ccc(S(=O)(=O)N(CC(C)C)[C@H](CO)CCCCNC(=O)[C@H](Cc2ccccc2)NC(=O)N2CCOCC2)cc1` [Example 120, (2S,2′S) 2-N-Isobutyl-2-N-(4-methylbenzenesulfonyl)-6-N-[N′α-(4-morpholinecarbonyl)-S-phenylalanyl]-2,6-diaminohexanol] reads 2.4 nM; that for `CC(=O)Nc1ccc(S(=O)(=O)N[C@@H](Cc2ccccc2)C(=O)NCCCC[C@@H](CO)N(CC(C)C)S(=O)(=O)c2ccc(C)cc2)cc1` [Example 121, (2S,2′S) 2-N-Isobutyl-2-N-(4-methylbenzenesulfonyl)-6-N-[N′α-(4-acetylaminobenzenesulfonyl)-S-phenylalanyl]-2,6-diaminohexanol], 23 nM.
Turning to `Cc1ccc(S(=O)(=O)N(CC(C)C)[C@H](CO)CCCCNC(=O)[C@H](Cc2ccccc2)NS(=O)(=O)c2cccs2)cc1` [Example 122, (2S,2′S) 2-N-Isobutyl-2-N-(4-methylbenzenesulfonyl)-6-N-[N′α-(2-thiophenesulfonyl)-S-phenylalanyl]-2,6-diaminohexanol], under setting [1], the Ki was determined as 8.2 nM.
`Cc1ccc(S(=O)(=O)N(CC(C)C)[C@H](CO)CCCCNC(=O)[C@H](Cc2ccccc2)NS(=O)(=O)c2ccccc2)cc1` [Example 123, (2S,2′S) 2-N-Isobutyl-2-N-(4-methylbenzenesulfonyl)-6-N-(N′α-benzenesulfonyl-S-phenylalanyl)-2,6-diaminohexanol] yielded an inhibition constant Ki of 14 nM.
Same read-out and setting: the result for `Cc1ccc(S(=O)(=O)N[C@@H](Cc2ccc([N+](=O)[O-])cc2)C(=O)NCCCC[C@@H](CO)N(CC(C)C)S(=O)(=O)c2ccc(C)cc2)cc1` [Example 124, (2S,2′S) 2-N-Isobutyl-2-N-(4-methylbenzenesulfonyl)-6-N-[N′α-(4-methylbenzenesulfonyl)-S-4-nitrophenylalanyl]-2,6-diaminohexanol] reads 12 nM.
In the case of `Cc1ccc(S(=O)(=O)N(CC(C)C)[C@H](CO)CCCCNC(=O)[C@H](Cc2ccccc2)NS(=O)(=O)c2ccc(F)cc2)cc1` [Example 125, (2S,2′S) 2-N-Isobutyl-2-N-(4-methylbenzenesulfonyl)-6-N-[N′α-(4-fluorobenzenesulfonyl)-S-phenylalanyl]-2,6-diaminohexanol], the inhibitory constant (Ki) under setting [1] was 39 nM.
As to `COc1ccc(S(=O)(=O)N[C@@H](Cc2ccccc2)C(=O)NCCCC[C@@H](CO)N(CC(C)C)S(=O)(=O)c2ccc(C)cc2)cc1` [Example 126, (2S,2′S) 2-N-Isobutyl-2-N-(4-methylbenzenesulfonyl)-6-N-[N′α-(4-methoxybenzenesulfonyl)-S-phenylalanyl]-2,6-diaminohexanol], the Ki came out at 19 nM.
`Cc1ccc(S(=O)(=O)N(CC(C)C)[C@H](CO)CCCCNC(=O)[C@H](Cc2ccccc2)NS(=O)(=O)c2ccc(C(F)(F)F)cc2)cc1` [Example 127, (2S,2′S) 2-N-Isobutyl-2-N-(4-methylbenzenesulfonyl)-6-N-[N′α-(4-trifluoromethylbenzenesulfonyl)-S-phenylalanyl]-2,6-diaminohexanol] registered a Ki of 164 nM.
With `Cc1ccc(S(=O)(=O)N(CC(C)C)[C@H](CO)CCCCNC(=O)[C@H](Cc2c[nH]c3ccccc23)NS(=O)(=O)c2ccccc2)cc1` [Example 128, (2S,2′S) 2-N-Isobutyl-2-N-(4-methylbenzenesuilfonyl)-6-N-(N′α-benzenesulfonyi-S-tryptophanyl)-2,6-diaminohexanol], under setting [1], the Ki was found to be 0.95 nM.
In turn, `Cc1ccc(S(=O)(=O)N(CC(C)C)[C@H](CO)CCCCNC(=O)[C@H](Cc2c[nH]c3ccccc23)NS(=O)(=O)c2cccs2)cc1` [Example 129, (2S,2′S) 2-N-Isobutyl-2-N-(4-methylbenzenesulfonyl)-6-N-[N′α-(2-thiophenesulfonyl)-S-tryptophanyl]-2,6-diaminohexanol] had an inhibition constant (Ki) of 1 nM.
The same measure, in the same setting: under `Cc1ccc(S(=O)(=O)N(CC(C)C)[C@H](CO)CCCCNC(=O)[C@H](Cc2c[nH]c3ccccc23)NS(=O)(=O)c2ccc([N+](=O)[O-])cc2)cc1` [Example 130, (2S,2′S) 2-N-Isobutyl-2-N-(4-methylbenzenesulfonyl)-6-N-[N′α-(4-nitrobenzenesulfonyl)-S-tryptophanyl]-2,6-diaminohexanol] stands 27 nM; under `CC(=O)N[C@@H](Cc1c[nH]c2ccccc12)C(=O)NCCCC[C@@H](CO)N(CC(C)C)S(=O)(=O)c1ccc(C)cc1` [Example 131, (2S,2′S) 2-N-Isobutyl-2-N-(4-methylbenzenesulfonyl)-6-N-(N′α-acetyl-S-tryptophanyl)-2,6-diaminohexanol], 3 nM.
On the same count and under the same terms, under `COc1ccc(CC(=O)N[C@@H](Cc2ccccc2)C(=O)NCCCC[C@@H](C(=O)O)N(CC(C)C)S(=O)(=O)c2ccc(C)cc2)cc1` [Example 132, Nα-Isobutyl-Nα-(4-methylbenzenesulfonyl)-Nε-[N′α-(4-methoxyphenylacetyl)-L-phenylalanyl]-L-lysine] stands 0.257 nM; under `Cc1ccc(S(=O)(=O)N(CC(C)C)[C@@H](CCCCNC(=O)[C@H](Cc2c[nH]c3ccccc23)NC(=O)CCc2ccccc2)C(=O)O)cc1` [Example 133, Nα-Isobutyl-Nα-(4-methylbenzenesulfonyl)-Nε-(N′α-dihydrocinnamoyl-L-tryptophanyl)-L-lysine], 0.606 nM; under `Cc1ccc(S(=O)(=O)N(CC(C)C)[C@H](CO)CCCCNC(=O)[C@H](Cc2ccccn2)NC(=O)OC(C)(C)C)cc1` [Example 134, (2S,2′S) 2-N-Isobutyl-2-N-(4-methylbenzenesulfonyl)-6-N-(N′α-tert-butoxycarbonyl-S-2-pyridylalanyl)-2,6-diaminohexanol], 30 nM.
The same measure, in the same setting: the result for `Cc1ccc(S(=O)(=O)N(CC(C)C)[C@H](CO)CCCCNC(=O)[C@H](Cc2cccnc2)NC(=O)OC(C)(C)C)cc1` [Example 135, (2S,2′S) 2-N-Isobutyl-2-N-(4-methylbenzenesulfonyl)-6-N-(N′α-tert-butoxycarbonyl-S-3-pyridylalanyl)-2,6-diaminohexanol] reads 144 nM.
On to `Cc1ccc(S(=O)(=O)N(CC(C)C)[C@H](CO)CCCCNC(=O)[C@H](Cc2ccncc2)NC(=O)OC(C)(C)C)cc1` [Example 136, (2S,2′S) 2-N-Isobutyl-2-N-(4-methylbenzenesulfonyl)-6-N-(N′α-tert-butoxycarbonyl-S-4-pyridylalanyl)-2,6-diaminohexanol], for which the inhibition constant (Ki) under setting [1] was found to be 110 nM.
Turning to `Cc1ccc(S(=O)(=O)N(CC(C)C)[C@H](CO)CCCCNC(=O)[C@H](Cc2ccccc2F)NC(=O)OC(C)(C)C)cc1` [Example 138, (2S,2′S) 2-N-Isobutyl-2-N-(4-methylbenzenesulfonyl)-6-N-(N′α-tert-butoxycarbonyl-S-2-fluorophenylalanyl)-2,6-diaminohexanol], the inhibition constant (Ki) amounted to 10 nM.
Same read-out and setting: under `Cc1ccc(S(=O)(=O)N(CC(C)C)[C@H](CO)CCCCNC(=O)[C@H](Cc2cccc(F)c2)NC(=O)OC(C)(C)C)cc1` [Example 139, (2S,2′S) 2-N-Isobutyl-2-N-(4-methylbenzenesulfonyl)-6-N-(N′α-tert-butoxycarbonyl-S-3-fluorophenylalanyl)-2,6-diaminohexanol] stands 4.1 nM; under `Cc1ccc(S(=O)(=O)N(CC(C)C)[C@H](CO)CCCCNC(=O)[C@H](Cc2ccc(F)cc2)NC(=O)OC(C)(C)C)cc1` [Example 140, (2S,2′S) 2-N-Isobutyl-2-N-(4-methylbenzenesulfonyl)-6-N-(N′α-tert-butoxycarbonyl-S-4-fluorophenylalanyl)-2,6-diaminohexanol], 4.2 nM.
Same read-out and setting: the result for `Cc1ccc(S(=O)(=O)N(CC(C)C)[C@H](CO)CCCCNC(=O)[C@@H]2Cc3c([nH]c4ccccc34)CN2C(=O)OC(C)(C)C)cc1` [Example 141, (2S,2′S) 2-N-Isobutyl-2-N-(4-methylbenzenesulfonyl)-6-N-(N′α-tert-butoxycarbonyl-S-1,2,3,4-tetrahydronorharman-3-carbonyl)-2,6-diaminohexanol] reads 38 nM; that for `Cc1ccc(S(=O)(=O)N(CC(C)C)[C@H](CO)CCCCNC(=O)[C@H](Cc2ccc(C(C)(C)C)cc2)NC(=O)OC(C)(C)C)cc1` [Example 142, (2S,2′S) 2-N-Isobutyl-2-N-(4-methylbenzenesulfonyl)-6-N-(N′α-tert-butoxycarbonyl-S-4-tert-butylphenylalanyl)-2,6-diaminohexanol], 93 nM.
For `Cc1ccc(S(=O)(=O)N(CC(C)C)[C@H](CO)CCCCNC(=O)[C@H](Cc2c(F)c(F)c(F)c(F)c2F)NC(=O)OC(C)(C)C)cc1` [Example 143, (2S,2′S) 2-N-Isobutyl-2-N-(4-methylbenzenesulfonyl)-6-N-(N′α-tert-butoxycarbonyl-S-pentafluorophenylalanyl)-2,6-diaminohexanol], the Ki is above 300 nM.

The values are drawn from US6610689B2, “HIV protease inhibitors based on amino acid derivatives” (priority 2001, dated 2003).
